Target: T1, protein tyrosine phosphatase 1B (PTP1B) (Homo sapiens, UniProt P18031)
T1 construct: gene PTPN1; Recombinant human GST-PTP1B (hGST-PTP1B)
T1 sequence (P18031 1-435): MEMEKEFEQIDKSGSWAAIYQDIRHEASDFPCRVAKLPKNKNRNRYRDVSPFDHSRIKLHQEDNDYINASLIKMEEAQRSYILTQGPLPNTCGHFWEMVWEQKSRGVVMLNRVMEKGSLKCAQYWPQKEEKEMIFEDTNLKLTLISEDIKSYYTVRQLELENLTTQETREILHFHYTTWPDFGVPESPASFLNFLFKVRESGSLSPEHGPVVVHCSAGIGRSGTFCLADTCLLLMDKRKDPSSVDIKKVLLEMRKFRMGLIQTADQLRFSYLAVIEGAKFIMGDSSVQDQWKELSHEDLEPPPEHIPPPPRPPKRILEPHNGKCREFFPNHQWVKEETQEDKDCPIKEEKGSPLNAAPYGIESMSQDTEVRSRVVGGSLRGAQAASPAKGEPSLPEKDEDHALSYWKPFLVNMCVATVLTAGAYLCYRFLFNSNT
Assay: pNPP hydrolysis assay at […] nm with recombinant GST-PTP1B
Type: biochemical

CC(C)OCc1cc(O)c(O)c(Br)c1Cc1cc(O)c(O)c(Br)c1Br [HPN, 3,4-dibromo-5-(2-bromo-3,4-dihydroxy-6-(isopropoxymethyl)benzyl)benzene-1,2-diol]
IC50: 630 nM
